Broadly, the LOAEL is the lowest tested level that showed an adverse finding. For orientation: NOAEL means the highest tested level that showed no adverse finding.

This note sets out measurements from EPA's ToxRefDB 2.

In data set [1] the test system is rat. The following applies: Peri- and post-natal toxicity study (Segment III); sprague dawley; Injection; Subcutaneous; dose end: 22 PND; group: parental; systemic / in life observation / body weight / body weight.
Data set [2] has as its system rat. The following applies: Neurotoxicity screening battery, sprague dawley, Injection, Subcutaneous, dose end: 22 week, group: cannot be grouped.
Data set [3] concerns rat. The following applies: Prenatal developmental toxicity study; sprague dawley; Injection; Subcutaneous; dose end: 20 GD; group: maternal; reproductive / reproductive performance / premature delivery / premature delivery + systemic / in life observation / body weight / body ….
For data set [4], the system named is rat. Particulars: Subchronic oral toxicity in rodents, other, Feed, dose end: 3 month, group: systemic.
Data set [5] relates to mouse. The following applies: Carcinogenicity; other; Oral; Feed; dose end: 18 month; group: systemic; systemic / clinical chemistry / alanine aminotransferase (alt/sgpt) / alanine aminotransferase (alt/sgpt) + systemic / clinical chemistry / ….
Data set [6] has as its system dog. Particulars: Subchronic oral toxicity in nonrodent, beagle, Feed, dose end: 90 day, group: systemic.
The test system of data set [7] is rat. The following applies: Multigenerational reproductive toxicity study, sprague dawley, Oral, Feed, dose end: 2 generation.
Data set [8] has as its system rat. The following applies: Prenatal developmental toxicity study, other, Oral, Gavage/Intubation, dose end: 15 GD.
For data set [9], the system named is rat. The following applies: Combined chronic toxicity/carcinogenicity, other, Oral, Feed, dose end: 24 month, group: systemic.
Data set [10] has as its system dog. Particulars: Chronic toxicity; beagle; Oral; Feed; dose end: 52 week; group: systemic; systemic / in life observation / body weight / body weight gain + systemic / in life observation / clinical signs / abnormal gait + systemic….
For data set [11], the system named is rat. Particulars: Carcinogenicity, fischer, Oral, Feed, dose end: 107 week, group: systemic.
Data set [12] has as its system mouse. Particulars: Carcinogenicity, b6c3f1, Oral, Feed, dose end: 100 week, group: systemic.
Data set [13] deals with mouse. The following applies: Subchronic oral toxicity in rodents, b6c3f1, Gavage/Intubation, dose end: 14 week, group: systemic.
Data set [14] deals with rat. Particulars: Peri- and post-natal toxicity study (Segment III), wistar, Oral, Gavage/Intubation, dose end: 21 PND.
For data set [15], the system named is rat. Particulars: Subchronic oral toxicity in rodents, fischer, Gavage/Intubation, dose end: 14 week, group: systemic.
The test system of data set [16] is mouse. The following applies: Combined chronic toxicity/carcinogenicity, b6c3f1, Oral, Gavage/Intubation, dose end: 2 year, group: systemic.
Data set [17] deals with rat. The following applies: Prenatal developmental toxicity study, wistar, Oral, Gavage/Intubation, dose end: 15 GD.
The test system of data set [18] is rat. Particulars: Combined chronic toxicity/carcinogenicity; fischer; Oral; Gavage/Intubation; dose end: 2 year; group: systemic; systemic / pathology microscopic / kidney / hyperplasia + systemic / pathology microscopic / kidney / nephropathy + systemic / pathology ….
The mark [19] stands for this setting: reproductive / reproductive performance / estrous cycle / periodicity + systemic / clinical chemistry / corticosterone / corticosterone + ….
[20] abbreviates: systemic / clinical chemistry / corticosterone / corticosterone + systemic / in life observation / body weight / body weight gain.
Setting [21] is: systemic / clinical chemistry / alkaline phosphatase (alp/alk) / alkaline phosphatase (alp/alk) + systemic / organ weight / liver / absolute….
Where [22] appears, read: systemic / in life observation / clinical signs / skin ulceration.
Setting [23] is: systemic / in life observation / clinical signs / skin ulceration + systemic / clinical chemistry / alkaline phosphatase (alp/alk) / ….
The mark [24] stands for this setting: group: offspring, developmental / offspring survival late / lactation index / lactation index + systemic / in life observation / body weight / offspring (pup….
[25] abbreviates: group: parental, systemic / in life observation / body weight / body weight gain + systemic / in life observation / food consumption / food consumption + ….
[26] abbreviates: group: developmental, developmental / developmental malformation / bone / incomplete ossification + developmental / developmental malformation / bone / irregular ….
The mark [27] stands for this setting: group: maternal, systemic / in life observation / body weight / body weight gain.
The mark [28] stands for this setting: systemic / pathology microscopic / kidney / pigmentation + systemic / pathology microscopic / liver / hypertrophy.
[29] abbreviates: systemic / pathology microscopic / kidney / pigmentation + systemic / pathology microscopic / liver / hypertrophy + systemic / pathology ….
[30] abbreviates: systemic / in life observation / body weight / body weight + systemic / pathology microscopic / mammary gland / dilatation + systemic / ….
[31] abbreviates: systemic / pathology microscopic / mammary gland / hyperplasia.
[32] abbreviates: systemic / pathology gross / full gross necropsy / lymphoma malignant + systemic / in life observation / body weight / body weight gain.
The mark [33] stands for this setting: systemic / pathology gross / full gross necropsy / lymphoma malignant + systemic / in life observation / body weight / body weight gain + ….
[34] abbreviates: systemic / organ weight / kidney / relative to body weight + systemic / organ weight / liver / absolute.
[35] abbreviates: group: developmental, developmental / developmental landmark / eye opening / eye opening + developmental / developmental landmark / pinna unfolding / pinna ….
Where [36] appears, read: group: maternal, reproductive / reproductive performance / dystocia / dystocia + reproductive / reproductive performance / fertility / fertility + ….
[37] abbreviates: group: offspring, systemic / in life observation / body weight / offspring (pup) weight.
Setting [38] is: group: parental, systemic / in life observation / body weight / body weight + systemic / in life observation / body weight / body weight gain + systemic / in….
[39] abbreviates: systemic / organ weight / kidney / absolute + systemic / organ weight / kidney / relative to body weight + systemic / organ weight / liver….
Where [40] appears, read: systemic / pathology microscopic / liver / adenoma/carcinoma combined + systemic / pathology microscopic / liver / adenoma + systemic / ….
The mark [41] stands for this setting: group: developmental, developmental / developmental malformation / bone / [other] + developmental / developmental malformation / bone / delayed ossification + ….
The mark [42] stands for this setting: group: maternal, reproductive / reproductive performance / implantations / implantations + systemic / in life observation / body weight / body weight gain + ….

Turning to `C[C@]12C[C@H](O)[C@H]3[C@@H](CCC4=CC(=O)CC[C@@]43C)[C@@H]1CC[C@@H]2C(=O)CO` [Corticosterone], the results for the LEL in data set [1], in data set [2] (setting [20]) and in [3] were 40 mg/kg/day, 10 mg/kg/day and 40 mg/kg/day, respectively. Also, the lowest observed adverse effect level (LOAEL) in data set [1], in [2] (setting [19]) and in data set [3] was more than 40 mg/kg/day throughout. Further, the NEL in data set [1] was less than 40 mg/kg/day; in [2] (setting [20]), less than 10 mg/kg/day; in data set [3], less than 40 mg/kg/day. For the same molecule, the no observed adverse effect level (NOAEL) in data set [1], in data set [2] (setting [19]) and in data set [3] was not below 40 mg/kg/day in each case.
With `C#CCOC(=O)[C@@H](C)Oc1ccc(Oc2ncc(Cl)cc2F)cc1` [Clodinafop-propargyl mixt.], the LEL in data set [4] (setting [21]) amounted to 8.24 mg/kg/day; in data set [5], 11 mg/kg/day; in data set [6] (setting [22]) it was 1.73 mg/kg/day; in data set [7] (setting [24]), 31.7 mg/kg/day; in [7] (setting [25]), 31.7 mg/kg/day; in data set [8] (setting [26]), 40 mg/kg/day. The results for the LEL in [8] (setting [27]), in data set [9] (setting [28]) and in data set [10] were 5 mg/kg/day, 0.324 mg/kg/day and 15.2 mg/kg/day, respectively. For the same molecule, the LOAEL came to 8.24 mg/kg/day in data set [4] (setting [21]); 11 mg/kg/day in data set [5]; 1.73 mg/kg/day in data set [6] (setting [22]); 31.7 mg/kg/day in data set [7] (setting [24]); 31.7 mg/kg/day in [7] (setting [25]); 40 mg/kg/day in data set [8] (setting [26]). For the same molecule, the LOAEL in [8] (setting [27]) is more than 160 mg/kg/day; in data set [9] (setting [28]) it was 0.324 mg/kg/day; in data set [10], 15.2 mg/kg/day. The NOAEL in [4] (setting [21]) stood at 0.92 mg/kg/day; in data set [5], 1.1 mg/kg/day; in data set [6] (setting [23]) it was 0.346 mg/kg/day; in [7] (setting [24]), 3.21 mg/kg/day; in data set [7] (setting [25]), 3.21 mg/kg/day; in data set [8] (setting [26]) it was 5 mg/kg/day. Besides, the no observed adverse effect level (NOAEL) was not below 160 mg/kg/day in data set [8] (setting [27]), 0.031 mg/kg/day in data set [9] (setting [29]) and 3.38 mg/kg/day in [10]. Also, the NEL came to 0.92 mg/kg/day in data set [4] (systemic / hematology / erythrocyte (rbc) count differential / erythrocyte (rbc) + systemic / hematology / hemoglobin (hgb) / hemoglobin (…); 1.1 mg/kg/day in data set [5]; 0.346 mg/kg/day in [6] (setting [23]); 3.21 mg/kg/day in [7] (setting [24]); 3.21 mg/kg/day in [7] (setting [25]); 5 mg/kg/day in [8] (setting [26]). The NEL in data set [8] (setting [27]) is less than 5 mg/kg/day; in data set [9] (setting [29]) it was 0.031 mg/kg/day; in data set [10], 3.38 mg/kg/day.
With `[Ca+2].[N-]=C=[N-]` [Calcium cyanamide], in data set [11] (setting [30]), the LOAEL was more than 10 mg/kg/day and the NOAEL is not below 10 mg/kg/day. In [11] (setting [31]), this molecule came in with an LEL of 5 mg/kg/day and an NEL of less than 5 mg/kg/day. Moreover, in [12] (setting [32]), the LEL came out at 75 mg/kg/day and the NEL was less than 75 mg/kg/day. Besides, in data set [12] (setting [33]), the LOAEL is more than 300 mg/kg/day and the no-observed-adverse-effect level (NOAEL) is not below 300 mg/kg/day.
Take `C=CC(=C)CCC=C(C)C` [Myrcene]: the lowest-observed-adverse-effect level (LOAEL) in data set [13] (systemic / in life observation / body weight / body weight + systemic / in life observation / body weight / body weight gain) was 1000 mg/kg/day; in data set [14] (setting [35]) it was more than 1500 mg/kg/day; in data set [14] (setting [36]), more than 1500 mg/kg/day; in data set [14] (setting [37]), more than 1500 mg/kg/day; in data set [14] (setting [38]), more than 1500 mg/kg/day; in data set [15] (systemic / organ weight / kidney / absolute + systemic / organ weight / kidney / relative to body weight + systemic / pathology microscopic…), 500 mg/kg/day. Also, the LOAEL in data set [16] (systemic / in life observation / body weight / body weight + systemic / pathology microscopic / liver / hypertrophy + systemic / pathology …) was 500 mg/kg/day; in [17] (setting [41]), more than 1200 mg/kg/day; in data set [17] (setting [42]) it was more than 1200 mg/kg/day; in data set [18] it was 250 mg/kg/day. Further, the LEL stood at 250 mg/kg/day in data set [13] (setting [34]); 500 mg/kg/day in data set [14] (group: developmental, developmental / developmental malformation / general / [other]); 500 mg/kg/day in data set [14] (group: maternal, reproductive / offspring survival early / litter viability other / litter viability); 500 mg/kg/day in data set [14] (setting [37]); 1000 mg/kg/day in data set [14] (group: parental, systemic / in life observation / body weight / body weight gain + systemic / pathology microscopic / stomach / hyperkeratosis); 250 mg/kg/day in [15] (setting [39]). Further, the LEL stood at 250 mg/kg/day in data set [16] (setting [40]), 1200 mg/kg/day in data set [17] (setting [41]), 1200 mg/kg/day in data set [17] (setting [42]) and 250 mg/kg/day in [18]. For the same molecule, the NEL was less than 250 mg/kg/day in data set [13] (setting [34]); 250 mg/kg/day in data set [14] (setting [35]); 250 mg/kg/day in [14] (group: maternal, reproductive / offspring survival early / dead fetuses / dead fetuses + reproductive / offspring survival early / litter viability other / …); 250 mg/kg/day in data set [14] (setting [37]); 500 mg/kg/day in [14] (setting [38]); less than 250 mg/kg/day in data set [15] (setting [39]). The NEL was less than 250 mg/kg/day in data set [16] (setting [40]), 500 mg/kg/day in [17] (setting [41]), 500 mg/kg/day in data set [17] (setting [42]) and less than 250 mg/kg/day in [18]. Moreover, the NOAEL was 500 mg/kg/day in [13] (systemic / organ weight / liver / absolute + systemic / in life observation / body weight / body weight + systemic / in life observation / …); not below 1500 mg/kg/day in [14] (setting [35]); not below 1500 mg/kg/day in data set [14] (setting [36]); not below 1500 mg/kg/day in data set [14] (setting [37]); not below 1500 mg/kg/day in data set [14] (setting [38]); 250 mg/kg/day in data set [15] (setting [39]). In addition, the NOAEL in [16] (systemic / pathology microscopic / liver / adenoma/carcinoma combined + systemic / in life observation / body weight / body weight + …) is 250 mg/kg/day; in [17] (setting [41]), not below 1200 mg/kg/day; in [17] (setting [42]) it was not below 1200 mg/kg/day; in data set [18], less than 250 mg/kg/day.
